The results in this text go back to US9227971B2, “Pyrazolo[1,5-a]pyrimidine compounds as mTOR inhibitors” (Merck Sharp & Dohme Corp., priority 2010, dated 2016).

In assay [1] the test system is phosphorylated 4E-BP1 Thr37/46 (p4E-BP1 Thr37/46), mTORC1 activity, PC3 cells. The experiment in a line: mTOR target engagement assay, immunofluorescent cell-based, p4E-BP1 Thr37/46 readout (mTORC1 activity). As to conditions: read-out: p4E-BP1 Thr37/46 IC50. The procedure, abridged:
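Read-out is fluorescence intensity of immunostained p4E-BP1 Thr37/46 in fixed PC3 cells, fitted to a logistic curve for IC50 with DMSO-only wells as top. Cells had been exposed to serial compound dilutions for ninety minutes at 37° C in 5% FBS medium with 0.25% DMSO.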

Assay [2] concerns phosphorylated AKT Ser473 (pAKT S473), mTORC2 activity, PC3 cells. Kind of assay: mTOR target engagement assay, immunofluorescent cell-based, pAKT S473 readout (mTORC2 activity). A digest of the protocol:
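After blocking, cells were stained overnight at 4 °C with anti-pAKT S473 antibody, then a fluorescent secondary; inhibition was read as reduced fluorescence intensity.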

[3] abbreviates: Homo sapiens, PC-3, Table 3-1, PC3 cells.
Setting [4] is: Homo sapiens, PC-3, PC3 cells, compound treatment ninety minutes at 37° C.
Setting [5] is: Homo sapiens, PC-3, Table 7-8, PC3 cells.

Read-outs that look alike come from different tables or passages of the source.

For the compound `CS(=O)(=O)c1c([C@@H]2C[C@H]3CC[C@@H](C2)N3C(=O)c2nnc[nH]2)nc2c(-c3ccc(-c4nc5c(s4)CCC5)nc3)cnn2c1N` [Compound 3.193, ((1R,3s,5)S-3-(7-amino-3-(6-(5,6-dihydro-4H-cyclopenta[d]thiazol-2-yl)pyridin-3-yl)-6-(methylsulfonyl)pyrazolo[1,5-a]pyrimidin-5-yl)-8-azabicyclo[3.2.1]octan-8-yl)(4H-1,2,4-triazol-3-yl)methanone], the IC50 in assay [1] (setting [3]) and in assay [2] (setting [3]) was 100 to 1000 nM in each case.
Take `CC(=O)c1c([C@@H]2C[C@H]3CC[C@@H](C2)N3C(=O)c2nnc[nH]2)nc2c(-c3ccc([C@H](O)C(F)(F)F)nc3)cnn2c1N` [Compound 7.74, 1-(5-((1R,3s,5S)-8-(4H-1,2,4-triazole-3-carbonyl)-8-azabicyclo[3.2.1]octan-3-yl)-7-amino-3-(6-((S)-2,2,2-trifluoro-1-hydroxyethyl)pyridin-3-yl)pyrazolo[1,5-a]pyrimidin-6-yl)ethanone]: the IC50 lay within 100 to 1000 nM in assay [1] (Homo sapiens, PC-3, PC3 cells) and 100 to 1000 nM in assay [2] (Homo sapiens, PC-3, PC3 cells).
For `CNC(=O)Nc1ccc(-c2cnn3c(N)c(C(C)=O)c([C@@H]4C[C@H]5CC[C@@H](C4)N5C(=O)c4ncn[nH]4)nc23)cn1` [Compound 8.75, 1-(5-(5-((1R,3s,5S)-8-(1H-1,2,4-triazole-5-carbonyl)-8-azabicyclo[3.2.1]octan-3-yl)-6-acetyl-7-aminopyrazolo[1,5-a]pyrimidin-3-yl)pyridin-2-yl)-3-methylurea], the IC50 in assay [1] (Homo sapiens, PC-3, PC3 cells) was in the range of 100 to 1000 nM; in assay [2] (Homo sapiens, PC-3, PC3 cells) it was 1 to 100 nM.
Consider `CCC(O)(CC)c1ccc(-c2cnn3c(N)c(C(C)=O)c([C@@H]4C[C@H]5CC[C@@H](C4)N5C(=O)c4nnc[nH]4)nc23)cn1` [Compound 1.1.85, 1-(5-((1R,3s,5S)-8-(4H-1,2,4-triazole-3-carbonyl)-8-azabicyclo[3.2.1]octan-3-yl)-7-amino-3-(6-(3-hydroxypentan-3-yl)pyridin-3-yl)pyrazolo[1,5-a]pyrimidin-6-yl)ethanone], for which the IC50 in assay [1] (setting [4]) and in assay [2] (setting [4]) was 1000 to 10000 nM throughout.
On to `CC(=O)c1c([C@@H]2C[C@H]3CC[C@@H](C2)N3C(=O)c2ccn[nH]2)nc2c(-c3ccc(-n4cc(C)cn4)nc3)cnn2c1N` [Compound 1.1.131, 1-(5-((1R,3s,5S)-8-(1H-pyrazole-5-carbonyl)-8-azabicyclo[3.2.1]octan-3-yl)-7-amino-3-(6-(4-methyl-1H-pyrazol-1-yl)pyridin-3-yl)pyrazolo[1,5-a]pyrimidin-6-yl)ethanone], for which the IC50 in assay [1] (setting [4]) and in assay [2] (setting [4]) was 100 to 1000 nM in each case.
Take `C[C@@H](O)C(=O)N1[C@@H]2CC[C@H]1C[C@H](c1nc3c(-c4ccc(-c5ccccc5)nc4)cnn3c(N)c1S(C)(=O)=O)C2` [Compound 3.28, (R)-1-((1R,3S,5S)-3-(7-amino-6-(methylsulfonyl)-3-(6-phenylpyridin-3-yl)pyrazolo[1,5-a]pyrimidin-5-yl)-8-azabicyclo[3.2.1]octan-8-yl)-2-hydroxypropan-1-one]: the IC50 in assay [1] (setting [3]) and in assay [2] (setting [3]) was 100 to 1000 nM throughout.
For the compound `CC(=O)NCC(=O)N1[C@@H]2CC[C@H]1C[C@H](c1nc3c(-c4ccc(-c5ccccc5)nc4)cnn3c(N)c1S(C)(=O)=O)C2` [Compound 3.203, N-(2-((1R,3s,5S)-3-(7-amino-6-(methylsulfonyl)-3-(6-phenylpyridin-3-yl)pyrazolo[1,5-a]pyrimidin-5-yl)-8-azabicyclo[3.2.1]octan-8-yl)-2-oxoethyl)acetamide], the IC50 in assay [1] (setting [3]) and in assay [2] (setting [3]) was 1 to 100 nM throughout.
Turning to `CC(O)c1ccc(-c2cnn3c(N)c(S(C)(=O)=O)c([C@@H]4C[C@H]5CC[C@@H](C4)N5C(=O)c4nnc[nH]4)nc23)cc1` (stereo partly drawn) [Compound 7.51, ((1R,3s,5S)-3-(7-amino-3-(4-(1-hydroxyethyl)phenyl)-6-(methylsulfonyl)pyrazolo [1,5-a]pyrimidin-5-yl)-8-azabicyclo[3.2.1]octan-8-yl)(4H-1,2,4-triazol-3-yl)methanone], the IC50 in assay [1] (setting [5]) and in assay [2] (setting [5]) was 1 to 100 nM in each case.
For the compound `CS(=O)(=O)c1c([C@@H]2C[C@H]3CC[C@@H](C2)N3C(=O)c2nnc[nH]2)nc2c(-c3cnn(-c4ccccc4)c3)cnn2c1N` [Compound 3.97, ((1R,3s,5S)-3-(7-amino-6-(methylsulfonyl)-3-(1-phenyl-1H-pyrazol-4-yl)pyrazolo[1,5-a]pyrimidin-5-yl)-8-azabicyclo[3.2.1]octan-8-yl)(4H-1,2,4-triazol-3-yl)methanone], the IC50 in assay [1] (setting [3]) and in assay [2] (setting [3]) was 1 to 100 nM throughout.
As to `CNC(=O)Nc1ccc(-c2cnn3c(N)cc([C@@H]4C[C@H]5CC[C@@H](C4)N5C(=O)CO)nc23)cc1` [Compound 8.82, 1-(4-(7-amino-5-((1R,3s,5S)-8-(2-hydroxyacetyl)-8-azabicyclo[3.2.1]octan-3-yl)pyrazolo[1,5-a]pyrimidin-3-yl)phenyl)-3-methylurea], the IC50 in assay [1] (Homo sapiens, PC-3, PC3 cells) was more than 10000 nM; in assay [2] (Homo sapiens, PC-3, PC3 cells), more than 10000 nM.
As for `CS(=O)(=O)c1c([C@@H]2C[C@H]3CC[C@@H](C2)N3C(=O)CO)nc2c(-c3cnc(-c4ccccc4)c(O)c3)cnn2c1N` [Compound 3.23, 1-((1R,3s,5S)-3-(7-amino-3-(5-hydroxy-6-phenylpyridin-3-yl)-6-(methylsulfonyl)pyrazolo[1,5-a]pyrimidin-5-yl)-8-azabicyclo[3.2.1]octan-8-yl)-2-hydroxyethanone], the IC50 in assay [1] (setting [3]) and in assay [2] (setting [3]) was 1000 to 10000 nM in each case.
With `CC(=O)c1c([C@@H]2C[C@H]3CC[C@@H](C2)N3C(=O)c2nnc[nH]2)nc2c(-c3ccc(NC4CC4)nc3)cnn2c1N` [Compound 8.47, 1-(5-((1R,3s,5S)-8-(4H-1,2,4-triazole-3-carbonyl)-8-azabicyclo[3.2.1]octan-3-yl)-7-amino-3-(6-(cyclopropylamino)pyridin-3-yl)pyrazolo[1,5-a]pyrimidin-6-yl)ethanone], the IC50 in assay [1] (PC3 cells) and in assay [2] (PC3 cells) was 1 to 100 nM in each case.
For `COCCOc1nnc(C(=O)N2C3CCC2CC(c2nc4c(-c5ccc(-c6ccccc6)nc5)cnn4c(N)c2C2CC2)C3)[nH]1` [Compound 8.100, ((1R,3s,5S)-3-(7-amino-6-cyclopropyl-3-(6-phenylpyridin-3-yl)pyrazolo[1,5-a]pyrimidin-5-yl)-8-azabicyclo[3.2.1]octan-8-yl)(5-(2-methoxyethoxy)-4H-1,2,4-triazol-3-yl)methanone], the IC50 in assay [1] (Homo sapiens, PC-3, PC3 cells) fell in the range of 100 to 1000 nM; in assay [2] (Homo sapiens, PC-3, PC3 cells), 100 to 1000 nM.
As for `CS(=O)(=O)c1c([C@H]2CC3CC[C@H](C2)N3C(=O)c2cn[nH]n2)nc2c(-c3cnc(-c4ccccc4)cn3)cnn2c1N` [Compound 3.175], the IC50 in assay [1] (setting [3]) and in assay [2] (setting [3]) was 1000 to 10000 nM throughout.
Take `COc1ccc(-c2ccc(-c3cnn4c(N)c(S(C)(=O)=O)c([C@@H]5C[C@H]6CC[C@@H](C5)N6C(=O)CO)nc34)cn2)cc1` [Compound 3.36, 1-((1R,3s,5S)-3-(7-amino-3-(6-(4-methoxphenyl)pyridin-3-yl)-6-(methylsulfonyl)pyrazolo[1,5-a]pyrimidin-5-yl)-8-azabicyclo[3.2.1]octan-8-yl)-2-hydroxyethanone]: the IC50 in assay [1] (setting [3]) and in assay [2] (setting [3]) was 1 to 100 nM in each case.
